Test system: not listed separately
Test: DRUGMATRIX: Atrial Natriuretic Factor (ANF) radioligand binding (ligand: [125I] ANF (rat))
Assay type: cell membranes, Cavia porcellus, Dunkin-Hartley, Adrenal gland, Membrane
Conditions: Not Active = under 50% inhibition at 10 µM

Row | SMILES | IC50 | Ki
1 | O=C(O)c1cc(-c2ccc(F)cc2F)ccc1O [DIFLUNISAL] | Not Active | Not Active
2 | C[S+](C)[O-] [DIMETHYL SULFOXIDE] | Not Active | Not Active
3 | CC1=NN(c2ccccc2)C(=O)C1 [EDARAVONE] | Not Active | Not Active
4 | CC(C)C[C@H]1C(=O)N2CCC[C@H]2[C@]2(O)O[C@](NC(=O)[C@@H]3C=C4c5cccc6[nH]cc(c56)C[C@H]4N(C)C3)(C(C)C)C(=O)N12 [ERGOCRYPTINE] | Not Active | Not Active
5 | CC(C)(C(=O)O)c1ccc(C(O)CCCN2CCC(C(O)(c3ccccc3)c3ccccc3)CC2)cc1 (stereo not given) [FEXOFENADINE] | Not Active | Not Active

Biological target: Prostaglandin G/H synthase 1 (Homo sapiens, UniProt P23219);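 note: inhibition of COX-1 enzyme activity, with arachidonic acid supplied as substrate; in other assays of this panel Not Active means under 50% inhibition at 10 µM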
Test: biochemical
Assay type: tissue-based, Platelet
Conditions: platelet

Chain of Prostaglandin G/H synthase 1 (P23219 whole entry): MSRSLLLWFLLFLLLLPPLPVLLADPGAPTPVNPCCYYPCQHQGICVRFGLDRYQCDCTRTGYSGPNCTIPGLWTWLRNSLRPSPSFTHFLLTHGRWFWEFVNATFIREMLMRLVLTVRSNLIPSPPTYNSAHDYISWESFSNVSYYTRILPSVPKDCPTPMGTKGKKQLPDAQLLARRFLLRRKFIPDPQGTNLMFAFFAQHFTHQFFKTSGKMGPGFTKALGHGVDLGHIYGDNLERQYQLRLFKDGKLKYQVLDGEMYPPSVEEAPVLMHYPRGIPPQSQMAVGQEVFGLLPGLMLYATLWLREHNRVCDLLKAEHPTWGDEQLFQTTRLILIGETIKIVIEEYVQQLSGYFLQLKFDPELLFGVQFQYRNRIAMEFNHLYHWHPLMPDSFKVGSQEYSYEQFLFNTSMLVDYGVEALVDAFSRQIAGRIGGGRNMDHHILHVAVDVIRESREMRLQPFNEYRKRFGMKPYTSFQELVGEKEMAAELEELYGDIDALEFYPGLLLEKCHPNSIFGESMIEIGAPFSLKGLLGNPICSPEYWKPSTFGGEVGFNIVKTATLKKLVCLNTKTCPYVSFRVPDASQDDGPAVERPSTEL

Row | SMILES | IC50
6 | O=C(O)c1cc(-c2ccc(F)cc2F)ccc1O [DIFLUNISAL] | Not Active
7 | C[S+](C)[O-] [DIMETHYL SULFOXIDE] | Not Active
8 | CC1=NN(c2ccccc2)C(=O)C1 [EDARAVONE] | Not Active
9 | CC(C)C[C@H]1C(=O)N2CCC[C@H]2[C@]2(O)O[C@](NC(=O)[C@@H]3C=C4c5cccc6[nH]cc(c56)C[C@H]4N(C)C3)(C(C)C)C(=O)N12 [ERGOCRYPTINE] | Not Active
10 | CC(C)(C(=O)O)c1ccc(C(O)CCCN2CCC(C(O)(c3ccccc3)c3ccccc3)CC2)cc1 (stereo not given) [FEXOFENADINE] | Not Active

Test system: not listed separately
Test: DRUGMATRIX: GABAA, Flunitrazepam, Central radioligand binding (ligand: [3H] Flunitrazepam)
Assay type: cell membranes, Rattus norvegicus, Wistar, Brain, Membrane
Conditions: Not Active = under 50% inhibition at 10 µM

Row | SMILES | IC50 | Ki
11 | O=C(O)c1cc(-c2ccc(F)cc2F)ccc1O [DIFLUNISAL] | Not Active | Not Active
12 | C[S+](C)[O-] [DIMETHYL SULFOXIDE] | Not Active | Not Active
13 | CC1=NN(c2ccccc2)C(=O)C1 [EDARAVONE] | Not Active | Not Active
14 | CC(C)C[C@H]1C(=O)N2CCC[C@H]2[C@]2(O)O[C@](NC(=O)[C@@H]3C=C4c5cccc6[nH]cc(c56)C[C@H]4N(C)C3)(C(C)C)C(=O)N12 [ERGOCRYPTINE] | Not Active | Not Active
15 | CC(C)(C(=O)O)c1ccc(C(O)CCCN2CCC(C(O)(c3ccccc3)c3ccccc3)CC2)cc1 (stereo not given) [FEXOFENADINE] | Not Active | Not Active

Biological target: Glycine receptor (Rattus norvegicus, UniProt P22771+P24524+P07727+P20781); note: in other assays of this panel Not Active means under 50% inhibition at 10 µM
Test: not given
Assay type: cell membranes, Wistar, Spinal cord, Membrane
Conditions: not given

Row | SMILES | IC50
16 | O=C(O)c1cc(-c2ccc(F)cc2F)ccc1O [DIFLUNISAL] | Not Active
17 | C[S+](C)[O-] [DIMETHYL SULFOXIDE] | Not Active
18 | CC1=NN(c2ccccc2)C(=O)C1 [EDARAVONE] | Not Active
19 | CC(C)C[C@H]1C(=O)N2CCC[C@H]2[C@]2(O)O[C@](NC(=O)[C@@H]3C=C4c5cccc6[nH]cc(c56)C[C@H]4N(C)C3)(C(C)C)C(=O)N12 [ERGOCRYPTINE] | Not Active
20 | CC(C)(C(=O)O)c1ccc(C(O)CCCN2CCC(C(O)(c3ccccc3)c3ccccc3)CC2)cc1 (stereo not given) [FEXOFENADINE] | Not Active

Biological target: T1, Cysteinyl leukotriene receptor 1 (Homo sapiens, UniProt Q9Y271); note: in other assays of this panel Not Active means under 50% inhibition at 10 µM
T1 sequence (Q9Y271 whole entry): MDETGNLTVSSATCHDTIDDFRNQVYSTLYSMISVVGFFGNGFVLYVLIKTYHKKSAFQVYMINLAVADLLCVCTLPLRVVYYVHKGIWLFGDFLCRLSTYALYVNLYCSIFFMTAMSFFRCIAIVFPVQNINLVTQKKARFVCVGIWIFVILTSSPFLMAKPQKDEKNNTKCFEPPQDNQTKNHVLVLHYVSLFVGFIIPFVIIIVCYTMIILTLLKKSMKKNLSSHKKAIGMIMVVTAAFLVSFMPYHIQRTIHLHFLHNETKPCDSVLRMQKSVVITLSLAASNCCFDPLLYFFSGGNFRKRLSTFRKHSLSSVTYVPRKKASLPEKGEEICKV
Test: not given
Assay type: cell membranes, Membrane
Conditions: cho-k1

Row | SMILES | IC50
21 | O=C(O)c1cc(-c2ccc(F)cc2F)ccc1O [DIFLUNISAL] | Not Active
22 | C[S+](C)[O-] [DIMETHYL SULFOXIDE] | Not Active
23 | CC1=NN(c2ccccc2)C(=O)C1 [EDARAVONE] | Not Active
24 | CC(C)C[C@H]1C(=O)N2CCC[C@H]2[C@]2(O)O[C@](NC(=O)[C@@H]3C=C4c5cccc6[nH]cc(c56)C[C@H]4N(C)C3)(C(C)C)C(=O)N12 [ERGOCRYPTINE] | Not Active
25 | CC(C)(C(=O)O)c1ccc(C(O)CCCN2CCC(C(O)(c3ccccc3)c3ccccc3)CC2)cc1 (stereo not given) [FEXOFENADINE] | Not Active

Biological target: cGMP-specific 3',5'-cyclic phosphodiesterase (Homo sapiens, UniProt O76074)
Test: DRUGMATRIX: Phosphodiesterase PDE5 enzyme inhibition (substrate: [3H]cGMP + cGMP)
Assay type: tissue-based, Platelet
Conditions: platelet; Not Active = under 50% inhibition at 10 µM

Row | SMILES | IC50
26 | O=C(O)c1cc(-c2ccc(F)cc2F)ccc1O [DIFLUNISAL] | Not Active
27 | C[S+](C)[O-] [DIMETHYL SULFOXIDE] | Not Active
28 | CC1=NN(c2ccccc2)C(=O)C1 [EDARAVONE] | Not Active
29 | CC(C)C[C@H]1C(=O)N2CCC[C@H]2[C@]2(O)O[C@](NC(=O)[C@@H]3C=C4c5cccc6[nH]cc(c56)C[C@H]4N(C)C3)(C(C)C)C(=O)N12 [ERGOCRYPTINE] | Not Active
30 | CC(C)(C(=O)O)c1ccc(C(O)CCCN2CCC(C(O)(c3ccccc3)c3ccccc3)CC2)cc1 (stereo not given) [FEXOFENADINE] | Not Active

Biological target: Cytochrome P450 2E1 (Homo sapiens, UniProt P05181); note: in other assays of this panel Not Active means under 50% inhibition at 10 µM
Test: not given
Conditions: bti-tn-5b1-4

Chain of Cytochrome P450 2E1 (P05181 whole entry): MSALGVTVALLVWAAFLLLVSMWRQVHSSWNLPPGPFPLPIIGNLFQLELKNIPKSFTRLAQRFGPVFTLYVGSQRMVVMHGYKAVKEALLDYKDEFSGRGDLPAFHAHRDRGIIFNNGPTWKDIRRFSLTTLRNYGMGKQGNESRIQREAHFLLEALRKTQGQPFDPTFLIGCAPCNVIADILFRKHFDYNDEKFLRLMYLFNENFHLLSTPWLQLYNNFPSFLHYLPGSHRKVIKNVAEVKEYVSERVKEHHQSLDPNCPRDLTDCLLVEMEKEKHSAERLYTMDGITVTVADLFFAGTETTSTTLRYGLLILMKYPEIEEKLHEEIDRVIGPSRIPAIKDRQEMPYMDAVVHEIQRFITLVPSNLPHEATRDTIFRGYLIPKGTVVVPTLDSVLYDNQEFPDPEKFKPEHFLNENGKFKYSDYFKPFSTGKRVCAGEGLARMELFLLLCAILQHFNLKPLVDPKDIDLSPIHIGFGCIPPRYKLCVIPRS

Row | SMILES | IC50 | Ki
31 | O=C(O)c1cc(-c2ccc(F)cc2F)ccc1O [DIFLUNISAL] | Not Active | Not Active
32 | C[S+](C)[O-] [DIMETHYL SULFOXIDE] | Not Active | Not Active
33 | CC1=NN(c2ccccc2)C(=O)C1 [EDARAVONE] | Not Active | Not Active
34 | CC(C)C[C@H]1C(=O)N2CCC[C@H]2[C@]2(O)O[C@](NC(=O)[C@@H]3C=C4c5cccc6[nH]cc(c56)C[C@H]4N(C)C3)(C(C)C)C(=O)N12 [ERGOCRYPTINE] | Not Active | Not Active
35 | CC(C)(C(=O)O)c1ccc(C(O)CCCN2CCC(C(O)(c3ccccc3)c3ccccc3)CC2)cc1 (stereo not given) [FEXOFENADINE] | Not Active | Not Active

Biological target: T2, Glucocorticoid receptor (Homo sapiens, UniProt P04150); note: in other assays of this panel Not Active means under 50% inhibition at 10 µM
T2 sequence (P04150 whole entry): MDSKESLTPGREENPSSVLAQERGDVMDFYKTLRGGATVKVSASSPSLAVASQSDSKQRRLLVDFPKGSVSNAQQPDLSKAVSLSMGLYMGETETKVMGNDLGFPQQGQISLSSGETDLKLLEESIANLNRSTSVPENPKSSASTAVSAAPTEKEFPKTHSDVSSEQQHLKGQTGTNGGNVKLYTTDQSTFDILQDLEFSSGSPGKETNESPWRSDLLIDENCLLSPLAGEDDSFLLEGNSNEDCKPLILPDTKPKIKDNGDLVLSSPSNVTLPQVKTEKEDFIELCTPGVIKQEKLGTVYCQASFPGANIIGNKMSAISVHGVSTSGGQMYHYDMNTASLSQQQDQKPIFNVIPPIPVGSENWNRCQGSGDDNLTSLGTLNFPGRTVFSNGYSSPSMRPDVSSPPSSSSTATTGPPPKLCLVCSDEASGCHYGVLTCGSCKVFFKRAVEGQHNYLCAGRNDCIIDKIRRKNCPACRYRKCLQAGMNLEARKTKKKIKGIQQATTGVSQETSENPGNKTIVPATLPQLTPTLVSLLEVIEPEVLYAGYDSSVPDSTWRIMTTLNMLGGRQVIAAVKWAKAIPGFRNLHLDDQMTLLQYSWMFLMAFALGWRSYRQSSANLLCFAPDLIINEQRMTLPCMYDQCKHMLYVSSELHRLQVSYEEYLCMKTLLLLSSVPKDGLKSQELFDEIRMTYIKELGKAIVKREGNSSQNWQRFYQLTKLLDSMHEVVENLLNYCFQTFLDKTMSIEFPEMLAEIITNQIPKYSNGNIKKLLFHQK
Test: not given
Conditions: hela s3

Row | SMILES | IC50
36 | O=C(O)c1cc(-c2ccc(F)cc2F)ccc1O [DIFLUNISAL] | Not Active
37 | C[S+](C)[O-] [DIMETHYL SULFOXIDE] | Not Active
38 | CC1=NN(c2ccccc2)C(=O)C1 [EDARAVONE] | Not Active
39 | CC(C)C[C@H]1C(=O)N2CCC[C@H]2[C@]2(O)O[C@](NC(=O)[C@@H]3C=C4c5cccc6[nH]cc(c56)C[C@H]4N(C)C3)(C(C)C)C(=O)N12 [ERGOCRYPTINE] | Not Active
40 | CC(C)(C(=O)O)c1ccc(C(O)CCCN2CCC(C(O)(c3ccccc3)c3ccccc3)CC2)cc1 (stereo not given) [FEXOFENADINE] | Not Active

Reference: ChEMBL document CHEMBL1909046, “DrugMatrix in vitro pharmacology data”
